Laboratory results as given in patent US20080021026A1, “BENZOTHIOPHENE INHIBITORS OF RHO KINASE” (priority 2006, published 2008).
Like-named read-outs stand apart in the source and are kept apart here.

Tests used:
[1] = molecular target: T1, recombinant N-terminal GST-tagged human Rho kinase 2 (ROCK2, amino acids 1-552) (Homo sapiens, UniProt O75116); test: In vitro Rho kinase assay (luciferase-based ATP consumption), ROCK2; assay type: biochemical
T1 construct: ROCK2, amino acids 1-552; purchased Invitrogen Inc. PV3759
T1 sequence (O75116 1-552): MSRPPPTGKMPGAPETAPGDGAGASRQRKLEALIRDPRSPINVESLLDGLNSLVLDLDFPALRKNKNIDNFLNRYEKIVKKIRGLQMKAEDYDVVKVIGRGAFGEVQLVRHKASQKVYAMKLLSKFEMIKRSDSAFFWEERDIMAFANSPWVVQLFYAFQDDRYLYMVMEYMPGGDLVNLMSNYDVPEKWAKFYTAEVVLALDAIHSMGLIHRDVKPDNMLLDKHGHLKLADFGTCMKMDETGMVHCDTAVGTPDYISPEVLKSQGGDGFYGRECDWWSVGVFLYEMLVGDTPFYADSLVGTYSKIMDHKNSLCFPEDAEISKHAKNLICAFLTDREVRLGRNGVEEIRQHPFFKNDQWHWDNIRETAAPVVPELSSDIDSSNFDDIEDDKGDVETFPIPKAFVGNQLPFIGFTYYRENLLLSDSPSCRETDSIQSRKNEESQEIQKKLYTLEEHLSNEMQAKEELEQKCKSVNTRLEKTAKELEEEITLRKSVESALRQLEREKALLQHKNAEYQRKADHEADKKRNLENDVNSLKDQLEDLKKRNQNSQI
Procedure, shortened: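 Luciferase-based luminescence of leftover ATP after 2 h at 30 °C, where inhibition raises signal, reports activity of GST-tagged ROCK2 (aa 1-552) at 0.82 μg/ml. Conditions: S6 peptide 100 μg/ml, […], pH 7.5 Tris buffer. Results given as percent of H-1152P control activity.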

[2] = molecular target: T2, recombinant N-terminal GST-tagged human Rho kinase 1 (ROCK1, amino acids 1-535) (Homo sapiens, UniProt Q13464); test: In vitro Rho kinase assay (luciferase-based ATP consumption), ROCK1; assay type: biochemical
T2 construct: ROCK1, amino acids 1-535; purchased Invitrogen Inc. PV-3691
T2 sequence (Q13464 1-535): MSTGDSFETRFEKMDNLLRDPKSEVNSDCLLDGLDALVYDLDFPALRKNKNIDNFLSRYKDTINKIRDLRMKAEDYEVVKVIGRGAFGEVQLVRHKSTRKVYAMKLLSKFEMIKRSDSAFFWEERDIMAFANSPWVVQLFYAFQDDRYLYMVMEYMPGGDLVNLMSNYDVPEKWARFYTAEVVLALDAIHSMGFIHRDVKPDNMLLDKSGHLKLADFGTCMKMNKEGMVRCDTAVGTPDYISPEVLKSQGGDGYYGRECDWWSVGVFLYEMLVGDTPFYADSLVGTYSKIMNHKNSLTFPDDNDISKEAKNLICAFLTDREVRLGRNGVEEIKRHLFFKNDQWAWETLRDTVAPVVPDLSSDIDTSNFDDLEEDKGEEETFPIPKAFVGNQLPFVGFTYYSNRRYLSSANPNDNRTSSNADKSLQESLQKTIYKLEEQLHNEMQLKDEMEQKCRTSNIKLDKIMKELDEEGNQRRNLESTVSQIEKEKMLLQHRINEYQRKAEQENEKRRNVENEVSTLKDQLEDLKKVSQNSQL
Method: In Vitro Rho Kinase Assay
Rho kinase biochemical assays described below depend on firefly luciferase-based, indirect measurement of total ATP consumption by the kinase following incubation with substrate and ATP. 25 μl of Rho kinase assay buffer (20 mM Tris-HCL [pH 7.5], 1 mM MgCl2, 0.4 mM CaCl2, 0.15 mM EGTA, 0.1 mg/ml bovine serum albumin) containing 0.82 μg/ml of recombinant N-terminal GST-tagged human Rho kinase 1 (ROCK1, amino acids 1-535, Invitrogen Inc., cat. #PV-3691) or recombinant N-terminal GST-tagged human Rho kinase 2 (ROCK2, amino acids 1-552, Invitrogen Inc., cat #PV3759), 100 μg/ml S6 peptide substrate (related to amino acids 218-249 of the human 40S ribosomal protein S6, and suitable for ROCK1 or ROCK2, e.g. Upstate/Millipore Inc., cat #12-420), and 3 µM ATP are dispensed to wells of a 384 multi-well opaque plate. The plate is centrifuged for 30 seconds at approximately 200×g. 240 nl of test compound in DMSO is dispensed to each well by passive pin transfer. The lag phase of this in vitro kinase reaction permits addition of compounds soon after the reaction initiates. The reaction is allowed to incubate at 30° C. for 2 hours. The assay plates are sealed and maintained in a humidified environment. After 2 hours, 25 μl of easylite protein kinase assay reagent (Perkin-Elmer, Inc.) is dispensed. After an additional 10 minute incubation at room temperature (about 22° C.), luminescence activity is measured on a Molecular Devices Analyst multi-mode plate reader or other suitable plate reader. Kinase inhibition results in less ATP consumption, and therefore increased luminescence signal. Negative control activity is measured with DMSO lacking any test compound. The positive control is 2-methyl-1-(4-methylisoquinolin-5-ylsulfonyl)perhydro-1,4-diazepine hydrochloride (aka H-1152P, HCl salt). Efficacy is measured as a percentage of positive control activity. […] The designation NT means the cited example was not tested.

[3] = recombinant GST-tagged human ROCK2, luciferase-based ATP consumption, read-out: ROCK2 IC50
[4] = recombinant GST-tagged human ROCK1, luciferase-based ATP consumption, read-out: ROCK1 IC50
[5] = ROCK2 IC50, recombinant GST-tagged human ROCK2, luciferase-based ATP consumption
[6] = ROCK1 IC50, recombinant GST-tagged human ROCK1, luciferase-based ATP consumption

SMILES | IC50 [1, 3] | IC50 [2, 4] | IC50 [1, 5] | IC50 [2, 6]
COc1cc(C=CC(=O)NCc2ccc3sc(-c4ccnc(N)n4)c(C)c3c2)ccc1O [Example 255, COc1cc(C═CC(═O)NCc2ccc3sc(c(C)c3c2)-c4ccnc(N)n4)ccc1O] | < 5 µM | < 5 µM |  | 
Cc1c(-c2ccnc(N)n2)sc2ccc(CNC(=O)c3ccc(OC(C)C)cc3)cc12 [Example 214, CC(C)Oc1ccc(cc1)C(═O)NCc2ccc3sc(c(C)c3c2)-c4ccnc(N)n4] | > 5 µM | > 5 µM |  | 
Cc1c(-c2ccnc(N)n2)sc2ccc(Nc3cccc(N)c3)cc12 [Example 57, N^1-(2-(2-Aminopyrimidin-4-yl)-3-methylbenzo[b]thiophen-5-yl)benzene-1,3-diamine] | < 5 µM | < 5 µM |  | 
COc1ccc(C(=O)NCc2ccc3sc(-c4ccnc(N)n4)c(C)c3c2)c(OC)c1OC [Example 280, COc1ccc(C(═O)NCc2ccc3sc(c(C)c3c2)-c4ccnc(N)n4)c(OC)c1OC] | < 5 µM | > 5 µM |  | 
COc1cccc(C#Cc2ccc3sc(-c4ccnc(N)n4)c(C)c3c2)c1 [Example 89, 4-(5-((3-Methoxyphenyl)ethynyl)-3-methylbenzo[b]thiophen-2-yl)pyrimidin-2-amine] | > 5 µM | > 5 µM |  | 
Cc1c(-c2ccnc3[nH]ccc23)sc2ccc(Cl)cc12 [Example 6, 4-(5-Chloro-3-methylbenzo[b]thiophen-2-yl)-1H-pyrrolo[2,3-b]pyridine] | > 5 µM | > 5 µM |  | 
Cc1c(-c2ccnc(N)n2)sc2ccc(CNC(=O)C(C)c3ccc(CC(C)C)cc3)cc12 (stereo not shown) [Example 274, CC(C)Cc1ccc(cc1)C(C)C(═O)NCc2ccc3sc(c(C)c3c2)-c4ccnc(N)n4] | > 5 µM | > 5 µM |  | 
Cc1c(-c2ccnc(N)n2)sc2ccc(CNC(=O)c3ccc(C(C)C)cc3)cc12 [Example 166, CC(C)c1ccc(cc1)C(═O)NCc2ccc3sc(c(C)c3c2)-c4ccnc(N)n4] | > 5 µM | > 5 µM |  | 
Cc1c(-c2ccnc(N)n2)sc2ccc(CNC(=O)Cc3ccc(Br)cc3)cc12 [Example 288, Cc1c(sc2ccc(CNC(═O)Cc3ccc(Br)cc3)cc12)-c4ccnc(N)n4] | < 5 µM | < 5 µM |  | 
Cc1c(-c2ccnc(N)n2)sc2ccc(CNC(=O)C(C)NC(=O)OC(C)(C)C)cc12 (stereo not shown) [Example 241, C[C](NC(═O)OC(C)(C)C)C(═O)NCc1ccc2sc(c(C)c2c1)-c3ccnc(N)n3] | > 5 µM | < 5 µM |  | 
Cc1c(-c2ccnc(N)n2)sc2ccc(CNC(=O)C3CCCCC3)cc12 [Example 115, Cc1c(sc2ccc(CNC(═O)C3CCCCC3)cc12)-c4ccnc(N)n4] | < 5 µM | > 5 µM |  | 
Cc1c(-c2ccnc(N)n2)sc2ccc(CNC(=O)c3cc(Br)ccc3Cl)cc12 [Example 314, Cc1c(sc2ccc(CNC(═O)c3cc(Br)ccc3Cl)cc12)-c4ccnc(N)n4] |  |  | < 5 µM | < 5 µM
COc1ccccc1CC(=O)NCc1ccc2sc(-c3ccnc(N)n3)c(C)c2c1 [Example 177, COc1ccccc1CC(═O)NCc2ccc3sc(c(C)c3c2)-c4ccnc(N)n4] | < 5 µM | > 5 µM |  | 
Cc1c(-c2ccnc(N)n2)sc2ccc(CNC(=O)c3cc(F)c(F)cc3[N+](=O)[O-])cc12 [Example 272, Cc1c(sc2ccc(CNC(═O)c3cc(F)c(F)cc3[N+]([O−])═O)cc12)-c4ccnc(N)n4] | < 5 µM | > 5 µM |  | 
Cc1c(-c2nccnc2N)sc2ccc(Cl)cc12 [Example 12, 3-(5-Chloro-3-methylbenzo[b]thiophen-2-yl)pyrazin-2-amine] | > 5 µM | > 5 µM |  | 
Cc1c(-c2ccnc(N)n2)sc2ccc(CNC(=O)c3ccccn3)cc12 [Example 111, Cc1c(sc2ccc(CNC(═O)c3ccccn3)cc12)-c4ccnc(N)n4] | < 5 µM | > 5 µM |  | 
CC(=O)Oc1ccc(C(=O)NCc2ccc3sc(-c4ccnc(N)n4)c(C)c3c2)cc1 [Example 208, CC(═O)Oc1ccc(cc1)C(═O)NCc2ccc3sc(c(C)c3c2)-c4ccnc(N)n4] | < 5 µM | < 5 µM |  | 
Cc1c(-c2ccnc(N)n2)sc2ccc(CNC(=O)c3ccncc3Cl)cc12 [Example 152, Cc1c(sc2ccc(CNC(═O)c3ccncc3Cl)cc12)-c4ccnc(N)n4] |  |  | < 5 µM | < 5 µM
Cc1c(-c2ccnc(N)n2)sc2ccc(CNC(=O)c3cccc4ccccc34)cc12 [Example 189, Cc1c(sc2ccc(CNC(═O)c3cccc4ccccc34)cc12)-c5ccnc(N)n5] | < 5 µM | < 5 µM |  | 
COc1cccc(Sc2ccc3sc(-c4ccnc(N)n4)c(C)c3c2)c1 [Example 83, 4-(5-(3-Methoxyphenylthio)-3-methylbenzo[b]thiophen-2-yl)pyrimidin-2-amine] | < 5 µM | < 5 µM |  | 

Further lines, with some results ahead:

IC50 [1, 3] | IC50 [2, 4] | SMILES | IC50 [1, 5] | IC50 [2, 6]
< 5 µM | < 5 µM | Cc1c(-c2ccnc(N)n2)sc2ccc(CNC(=O)C3CCc4ccccc43)cc12 (stereo not shown) [Example 159, Cc1c(sc2ccc(CNC(═O)C3CCc4ccccc34)cc12)-c5ccnc(N)n5] |  | 
> 5 µM | > 5 µM | Cc1c(-c2ccnc(N)n2)sc2ccc(CNC(=O)c3ccc(OCc4ccccc4)cc3)cc12 [Example 302, Cc1c(sc2ccc(CNC(═O)c3ccc(OCc4ccccc4)cc3)cc12)-c5ccnc(N)n5] |  | 
> 5 µM | < 5 µM | Cc1c(-c2ccnc(N)n2)sc2ccc(CNC(=O)c3cc(Cl)c(O)c(Cl)c3)cc12 [Example 275, Cc1c(sc2ccc(CNC(═O)c3cc(Cl)c(O)c(Cl)c3)cc12)-c4ccnc(N)n4] |  | 
> 5 µM | < 5 µM | Cc1c(-c2ccnc(N)n2)sc2ccc(CNC(=O)c3cnc(O)c(Cl)c3)cc12 [Example 193, Cc1c(sc2ccc(CNC(═O)c3cnc(O)c(Cl)c3)cc12)-c4ccnc(N)n4] |  | 
< 5 µM | < 5 µM | Cc1c(-c2ccnc(N)n2)oc2ccccc12 [Example 3, 4-(3-Methylbenzofuran-2-yl)pyrimidin-2-amine] |  | 
< 5 µM | > 5 µM | CCCCCCCC(=O)NCc1ccc2sc(-c3ccnc(N)n3)c(C)c2c1 [Example 125] |  | 
< 5 µM | > 5 µM | Cc1c(-c2ccnc(N)n2)sc2ccc(CNC(=O)c3cc(O)c(O)c(O)c3)cc12 [Example 185, Cc1c(sc2ccc(CNC(═O)c3cc(O)c(O)c(O)c3)cc12)-c4ccnc(N)n4] |  | 
< 5 µM | < 5 µM | Cc1c(-c2ccnc(N)n2)sc2ccc(CN)cc12 [Example 33, 4-(5-(Aminomethyl)-3-methylbenzo[b]thiophen-2-yl)pyrimidin-2-amine] |  | 
> 5 µM | < 5 µM | Cc1c(-c2ccnc(N)n2)sc2ccc(CNC(=O)c3ccccc3)cc12 [Example 108, Cc1c(sc2ccc(CNC(═O)c3ccccc3)cc12)-c4ccnc(N)n4] |  | 
< 5 µM | < 5 µM | Cc1c(-c2ccnc(N)n2)sc2ccc(Nc3cccnc3)cc12 [Example 65, 4-(3-Methyl-5-(pyridin-3-ylamino)benzo[b]thiophen-2-yl)pyrimidin-2-amine] |  | 
< 5 µM | > 5 µM | COc1ccc(Br)c(C(=O)NCc2ccc3sc(-c4ccnc(N)n4)c(C)c3c2)c1 [Example 310, COc1ccc(Br)c(c1)C(═O)NCc2ccc3sc(c(C)c3c2)-c4ccnc(N)n4] |  | 
< 5 µM | > 5 µM | Cc1cc(C(=O)NCc2ccc3sc(-c4ccnc(N)n4)c(C)c3c2)n[nH]1 [Example 113, Cc1cc(n[nH]1)C(═O)NCc2ccc3sc(c(C)c3c2)-c4ccnc(N)n4] |  | 
< 5 µM | < 5 µM | Cc1c(-c2ccnc(N)n2)sc2ccc(CNC(=O)c3ccc(C#N)cc3)cc12 [Example 126, Cc1c(sc2ccc(CNC(═O)c3ccc(cc3)C#N)cc12)-c4ccnc(N)n4] |  | 
< 5 µM | > 5 µM | Cc1c(-c2ccnc(N)n2)sc2ccc(CNC(=O)c3cccc(I)c3)cc12 [Example 320, Cc1c(sc2ccc(CNC(═O)c3cccc(I)c3)cc12)-c4ccnc(N)n4] |  | 
< 5 µM | < 5 µM | Cc1cccc(CCC(=O)NCc2ccc3sc(-c4ccnc(N)n4)c(C)c3c2)c1 [Example 168, Cc1cccc(CCC(═O)NCc2ccc3sc(c(C)c3c2)-c4ccnc(N)n4)c1] |  | 
